From patent US20250041298A1, “CDK4 INHIBITOR FOR THE TREATMENT OF CANCER” (Pfizer Inc., priority 2021, published 2025)
Where two headings read alike, the source gives them in different places.

Assay: Phase 1/1b clinical trial: plasma pharmacokinetics of PF-07220060
Assay type: in vivo, human
Settings: human, plasma; for Tmax / Cmax / AUC / half-life: po; for half-life: arithmetic mean
Description: Oral PF-07220060 was administered with at least 8 oz (240 mL) of water on an empty stomach (except during the food effect evaluation on Day-7 in Part 1D). No food or liquids other than water was consumed for 2 hours before and 1 hour following each dose throughout the study for BID dosing. No food or liquids other than water was consumed for 2 hours before and 2 hours after each dose throughout the study for QD dosing.
In the ongoing Phase 1/1b Study, as of Aug. 30, 2022, preliminary PK data for PF-07220060 as monotherapy (Part 1A) and in combination with endocrine therapy (Part 1B and Part 1C) was available from 60 participants with advanced solid tumors. PF-07220060 was administered orally as a single agent at doses ranging from 100 to 500 mg BID, and in combination with either letrozole or fulvestrant at 300 to 400 mg BID. Available plasma concentration-time data of PF-07220060 were analyzed using noncompartmental methods.
Preliminary noncompartmental PK analysis was conducted based on available samples collected from participants in the Study. […] Table 4 presents the summary of PK parameters for PF-07220060 as monotherapy, and in combination with letrozole or fulvestrant.

CC(C)n1c(C(C)(C)O)nc2c(F)cc(-c3nc(N[C@@H]4CCOC[C@H]4O)ncc3Cl)cc21 [PF-07220060, 1,5-anhydro-3-({5-chloro-4-[4-fluoro-2-(2-hydroxypropan-2-yl)-1-(propan-2-yl)-1H-benzimidazol-6-yl]pyrimidin-2-yl}amino)-2,3-dideoxy-D-threo-pentitol]
Tmax (300 mg BID oral + fulvestrant (Part 1C), C1D15 post multiple doses, median, read-out: Tmax): 1 h | Cmax (300 mg BID oral + letrozole (Part 1B), C1D1 post first dose, geometric mean): 989 ng/mL | AUC (300 mg BID oral + letrozole (Part 1B), C1D1 post first dose, geometric mean, read-out: AUC12): 6440 ng·h/mL | Tmax (300 mg BID oral + letrozole (Part 1B), C1D1 post first dose, median, read-out: Tmax): 3 h | half-life (300 mg BID oral + letrozole (Part 1B), C1D15): 4.1 h | AUC (300 mg BID oral + letrozole (Part 1B), C1D15, geometric mean, read-out: AUCtau): 10400 ng·h/mL | Cmax (300 mg BID oral + letrozole (Part 1B), C1D15 post multiple doses, geometric mean): 1520 ng/mL | Tmax (300 mg BID oral + letrozole (Part 1B), C1D15 post multiple doses, median, read-out: Tmax): 1 h | Cmax (300 mg, 300 mg BID oral monotherapy (Part 1A), C1D1 post first dose, geometric mean): 741 ng/mL | AUC (300 mg, 300 mg BID oral monotherapy (Part 1A), C1D1 post first dose, geometric mean, read-out: AUC12): 4560 ng·h/mL | Tmax (300 mg, 300 mg BID oral monotherapy (Part 1A), C1D1 post first dose, median, read-out: Tmax): 3.8 h | AUC (300 mg, 300 mg BID oral monotherapy (Part 1A), C1D15, geometric mean, read-out: AUCtau): 8100 ng·h/mL | Cmax (300 mg, 300 mg BID oral monotherapy (Part 1A), C1D15 post multiple doses, geometric mean): 1170 ng/mL | Tmax (300 mg, 300 mg BID oral monotherapy (Part 1A), C1D15 post multiple doses, median, read-out: Tmax): 2.1 h | Cmax (400 mg BID oral + fulvestrant (Part 1C), C1D1 post first dose, geometric mean): 730 ng/mL | AUC (400 mg BID oral + fulvestrant (Part 1C), C1D1 post first dose, geometric mean, read-out: AUC12): 4840 ng·h/mL | Tmax (400 mg BID oral + fulvestrant (Part 1C), C1D1 post first dose, median, read-out: Tmax): 2.2 h | half-life (400 mg BID oral + fulvestrant (Part 1C), C1D15): 6.6 h | Cmax (400 mg BID oral + letrozole (Part 1B), C1D1 post first dose, geometric mean): 950 ng/mL | AUC (400 mg BID oral + letrozole (Part 1B), C1D1 post first dose, geometric mean, read-out: AUC12): 7110 ng·h/mL | Tmax (400 mg BID oral + letrozole (Part 1B), C1D1 post first dose, median, read-out: Tmax): 2.2 h | AUC (400 mg BID oral + letrozole (Part 1B), C1D15, geometric mean, read-out: AUCtau): 11500 ng·h/mL | Cmax (400 mg BID oral + letrozole (Part 1B), C1D15 post multiple doses, geometric mean): 1420 ng/mL | Tmax (400 mg BID oral + letrozole (Part 1B), C1D15 post multiple doses, median, read-out: Tmax): 1.6 h | AUC (400 mg BID, 400 mg BID oral + fulvestrant (Part 1C), C1D15, geometric mean, read-out: AUCtau): 9560 ng·h/mL | Cmax (400 mg BID, 400 mg BID oral + fulvestrant (Part 1C), C1D15 post multiple doses, geometric mean): 1380 ng/mL | Tmax (400 mg BID, 400 mg BID oral + fulvestrant (Part 1C), C1D15 post multiple doses, median, read-out: Tmax): 1.1 h | Cmax (400 mg, 400 mg BID oral monotherapy (Part 1A), C1D1 post first dose, geometric mean): 766 ng/mL | AUC (400 mg, 400 mg BID oral monotherapy (Part 1A), C1D1 post first dose, geometric mean, read-out: AUC12): 5110 ng·h/mL | Tmax (400 mg, 400 mg BID oral monotherapy (Part 1A), C1D1 post first dose, median, read-out: Tmax): 2.1 h | half-life (400 mg, 400 mg BID oral monotherapy (Part 1A), C1D15, n = 2): 6.6 h | AUC (400 mg, 400 mg BID oral monotherapy (Part 1A), C1D15, geometric mean, read-out: AUCtau): 8000 ng·h/mL | Cmax (400 mg, 400 mg BID oral monotherapy (Part 1A), C1D15 post multiple doses, geometric mean): 949 ng/mL | Tmax (400 mg, 400 mg BID oral monotherapy (Part 1A), C1D15 post multiple doses, median, read-out: Tmax): 1 h | Cmax (500 mg, 500 mg BID oral monotherapy (Part 1A), C1D1 post first dose, geometric mean): 637 ng/mL | AUC (500 mg, 500 mg BID oral monotherapy (Part 1A), C1D1 post first dose, geometric mean, read-out: AUC12): 4170 ng·h/mL | Tmax (500 mg, 500 mg BID oral monotherapy (Part 1A), C1D1 post first dose, median, read-out: Tmax): 1.9 h | AUC (500 mg, 500 mg BID oral monotherapy (Part 1A), C1D15, n = 1, read-out: AUCtau): 12500 ng·h/mL | Cmax (500 mg, 500 mg BID oral monotherapy (Part 1A), C1D15 post multiple doses, geometric mean): 1760 ng/mL | Tmax (500 mg, 500 mg BID oral monotherapy (Part 1A), C1D15 post multiple doses, median, read-out: Tmax): 4 h | Tmax (following oral dose administration, across cohorts (100 to 500 mg BID), read-out: median Tmax values): 1 to 4 h | concentration at 15 day (100 mg BID oral monotherapy (Part 1A), C1D15, geometric mean, read-out: Cmin): 231 ng/mL
